Measured values from patent US20220356174A1, “PYRIDIN-2-ONE COMPOUNDS USEFUL AS SMARCA2 ANTAGONISTS” (Epizyme, Inc., priority 2018, published 2022).
Like-named read-outs stand apart in the source and are kept apart here.

Key:
[1] = molecular target: T1, FL-SMARCA2 (full-length human SMARCA2 isoform 1) (Homo sapiens, UniProt P51531); assay: SMARCA2 ATPase activity assay (ADP-Glo, chicken mononucleosome substrate); type: biochemical; conditions: ATP 250 uM
T1 construct: FLAG tag (YKDDDDK) (C); made in house; host or cells: Sf21 insect cells (baculovirus, pFastBacI)
Excerpt: Molecular Biology: Full-length human SMARCA2 isoform 1 (P51531) transcript clone was amplified from a cDNA library incorporating an N-terminal HIS tag ([…]) fused directly to Ser2 of SMARCA2 and a C-FLAG tag (YKDDDDK) fused directly to Glu1590 of SMARCA2. The amplified gene was subcloned into pFastBacI (Life Technologies).
Protein Expression: Recombinant baculovirus were generated and protein over-expression was accomplished by infecting exponentially growing Sf21 insect cell culture at 1.24×10^6 cell/ml with an MOI of 0.1. Infections were carried out for 76 hours, harvested by centrifugation, and stored at −80° C. for purification.
Expressed full-length SMARCA2 was purified from cell paste by FLAG affinity chromatography followed by anion exchange chromatography. The protein was dialyzed into a storage buffer containing 25 mM HEPES, 300 mM KCl, 10% Glycerol, pH 7.9, 1 mM TCEP and 0.01% Tween-20. The purity of the protein was measured as 74% using micro-capillary based gel electrophoresis.

[2] = molecular target: FL-SMARCA4 (Homo sapiens, UniProt P51532); assay: SMARCA4 ATPase activity assay (ADP-Glo, chicken mononucleosome substrate)
[3] = Table 3.1, ATPase assay, enzyme 5 nM, chicken mononucleosome 10 nM, 30 min preincubation
[4] = FL-SMARCA4 IC50, Table 3.2, ATPase assay, enzyme 5 nM, ATP 250 uM, chicken mononucleosome 10 nM, 30 min preincubation
[5] = Table 3a.1, SMARCA2 5 nM, mononucleosome 10 nM
[6] = FL-SMARCA4 IC50, Table 3a.2, SMARCA4 5 nM, ATP 250 uM, mononucleosome 10 nM
[7] = Table 3c.1, ATPase assay, enzyme 5 nM, chicken mononucleosome 10 nM, 30 min preincubation
[8] = FL-SMARCA4 IC>50, Table 3c.2, ATPase assay, enzyme 5 nM, ATP 250 uM, chicken mononucleosome 10 nM, 30 min preincubation
[9] = Table 3d.1, ATPase assay, enzyme 5 nM, chicken mononucleosome 10 nM, 30 min preincubation, read-out: FL-SMARCA2 IC>50

Sequence of FL-SMARCA4 (P51532 whole entry): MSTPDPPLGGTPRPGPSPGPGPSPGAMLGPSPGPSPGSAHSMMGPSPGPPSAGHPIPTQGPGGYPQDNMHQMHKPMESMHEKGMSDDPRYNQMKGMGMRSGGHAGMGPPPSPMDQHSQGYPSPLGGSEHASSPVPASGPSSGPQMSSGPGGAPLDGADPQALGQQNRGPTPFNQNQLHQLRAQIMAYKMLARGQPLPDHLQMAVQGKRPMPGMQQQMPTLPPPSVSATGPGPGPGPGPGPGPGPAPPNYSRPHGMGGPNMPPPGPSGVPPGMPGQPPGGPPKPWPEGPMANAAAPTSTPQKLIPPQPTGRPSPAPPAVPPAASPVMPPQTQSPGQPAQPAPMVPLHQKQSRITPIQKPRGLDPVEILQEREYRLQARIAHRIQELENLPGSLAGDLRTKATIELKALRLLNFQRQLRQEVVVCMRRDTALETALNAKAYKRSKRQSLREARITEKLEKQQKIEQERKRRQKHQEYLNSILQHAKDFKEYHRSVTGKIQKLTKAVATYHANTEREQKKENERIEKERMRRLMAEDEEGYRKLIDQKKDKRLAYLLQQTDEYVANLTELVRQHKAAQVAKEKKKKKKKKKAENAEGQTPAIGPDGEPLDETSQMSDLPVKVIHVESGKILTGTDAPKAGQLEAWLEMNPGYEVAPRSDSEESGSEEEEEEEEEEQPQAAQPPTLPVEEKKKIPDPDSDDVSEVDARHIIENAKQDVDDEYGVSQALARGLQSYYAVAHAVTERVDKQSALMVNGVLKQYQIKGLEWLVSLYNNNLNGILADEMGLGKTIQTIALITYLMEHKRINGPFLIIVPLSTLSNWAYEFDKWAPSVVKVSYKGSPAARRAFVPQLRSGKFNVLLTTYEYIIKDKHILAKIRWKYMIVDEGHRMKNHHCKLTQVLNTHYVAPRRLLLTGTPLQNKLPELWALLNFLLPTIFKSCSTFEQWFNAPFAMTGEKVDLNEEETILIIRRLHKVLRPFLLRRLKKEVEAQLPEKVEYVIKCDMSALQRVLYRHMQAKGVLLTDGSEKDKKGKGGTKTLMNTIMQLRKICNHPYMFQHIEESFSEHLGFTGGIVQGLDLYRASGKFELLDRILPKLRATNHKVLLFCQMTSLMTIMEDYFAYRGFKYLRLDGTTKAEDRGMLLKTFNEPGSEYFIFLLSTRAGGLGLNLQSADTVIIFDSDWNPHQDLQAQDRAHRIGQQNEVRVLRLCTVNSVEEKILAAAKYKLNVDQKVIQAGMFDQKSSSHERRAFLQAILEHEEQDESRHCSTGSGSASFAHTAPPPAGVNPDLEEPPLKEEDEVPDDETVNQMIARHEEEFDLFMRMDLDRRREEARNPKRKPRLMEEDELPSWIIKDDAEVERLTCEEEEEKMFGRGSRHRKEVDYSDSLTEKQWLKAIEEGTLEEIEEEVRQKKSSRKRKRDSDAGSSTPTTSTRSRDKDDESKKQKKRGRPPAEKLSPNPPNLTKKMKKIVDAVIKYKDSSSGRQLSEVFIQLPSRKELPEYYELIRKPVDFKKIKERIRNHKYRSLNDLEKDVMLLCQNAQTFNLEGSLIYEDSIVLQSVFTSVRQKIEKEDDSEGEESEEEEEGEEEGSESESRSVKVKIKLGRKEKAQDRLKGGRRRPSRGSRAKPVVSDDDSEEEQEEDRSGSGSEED
T1 sequence (P51531 with tags, fused parts or gaps): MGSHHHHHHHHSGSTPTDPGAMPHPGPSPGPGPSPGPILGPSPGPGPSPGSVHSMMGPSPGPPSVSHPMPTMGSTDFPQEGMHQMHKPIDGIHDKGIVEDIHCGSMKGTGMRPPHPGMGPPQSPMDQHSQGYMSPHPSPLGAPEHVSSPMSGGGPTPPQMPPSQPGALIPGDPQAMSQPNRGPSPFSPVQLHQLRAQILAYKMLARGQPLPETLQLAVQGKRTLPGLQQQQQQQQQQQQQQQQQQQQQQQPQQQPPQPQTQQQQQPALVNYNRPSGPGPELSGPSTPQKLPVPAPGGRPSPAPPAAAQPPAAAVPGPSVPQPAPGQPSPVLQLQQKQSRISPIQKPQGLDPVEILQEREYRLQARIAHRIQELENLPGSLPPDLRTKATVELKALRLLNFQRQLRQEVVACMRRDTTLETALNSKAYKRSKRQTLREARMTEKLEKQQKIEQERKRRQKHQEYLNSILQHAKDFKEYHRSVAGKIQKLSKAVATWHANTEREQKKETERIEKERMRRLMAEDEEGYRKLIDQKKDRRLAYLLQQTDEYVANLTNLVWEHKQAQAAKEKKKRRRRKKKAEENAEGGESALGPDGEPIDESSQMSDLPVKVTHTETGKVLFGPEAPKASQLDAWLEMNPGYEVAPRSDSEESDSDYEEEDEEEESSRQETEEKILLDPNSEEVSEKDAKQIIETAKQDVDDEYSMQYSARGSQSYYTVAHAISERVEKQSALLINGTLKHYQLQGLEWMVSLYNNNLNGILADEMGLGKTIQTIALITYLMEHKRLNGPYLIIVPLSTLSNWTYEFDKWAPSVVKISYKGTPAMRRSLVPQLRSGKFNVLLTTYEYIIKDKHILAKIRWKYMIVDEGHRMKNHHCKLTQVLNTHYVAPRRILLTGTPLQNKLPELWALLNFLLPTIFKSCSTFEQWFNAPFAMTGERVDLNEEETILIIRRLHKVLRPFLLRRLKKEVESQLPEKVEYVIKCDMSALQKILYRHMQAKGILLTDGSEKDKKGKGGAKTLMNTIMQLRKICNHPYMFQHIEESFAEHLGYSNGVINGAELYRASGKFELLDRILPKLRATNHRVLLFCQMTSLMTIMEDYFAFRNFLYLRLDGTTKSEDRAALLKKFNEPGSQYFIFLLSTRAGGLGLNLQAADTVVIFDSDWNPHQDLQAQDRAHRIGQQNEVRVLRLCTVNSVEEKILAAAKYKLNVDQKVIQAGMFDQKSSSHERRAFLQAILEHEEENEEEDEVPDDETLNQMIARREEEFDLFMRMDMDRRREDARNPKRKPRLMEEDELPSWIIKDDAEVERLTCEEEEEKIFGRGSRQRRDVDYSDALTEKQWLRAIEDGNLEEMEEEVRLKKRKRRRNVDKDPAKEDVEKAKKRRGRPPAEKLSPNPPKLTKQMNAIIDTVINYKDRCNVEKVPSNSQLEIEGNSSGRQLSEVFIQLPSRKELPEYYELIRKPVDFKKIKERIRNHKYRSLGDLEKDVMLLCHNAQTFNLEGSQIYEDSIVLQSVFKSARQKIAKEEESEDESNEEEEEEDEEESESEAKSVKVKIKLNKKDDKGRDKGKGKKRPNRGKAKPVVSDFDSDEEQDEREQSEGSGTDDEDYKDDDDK

Row | IC50 [1, 3] | IC50 [2, 4] | also measured | Structure (SMILES)
1 | 0.071 µM | 0.492 µM | – | N#Cc1cc(C(=O)Nc2cc(Cl)c(=O)n(CCF)c2)sc1Cl [Compound 215]
2 | 0.311 µM | 1.34 µM | – | CCn1cc(NC(=O)c2cc(Cl)c(Cl)n2C)cc(F)c1=O [Compound 164]
3 | > 50 µM | > 50 µM | – | O=C(Nc1cc(F)c(=O)n(CCF)c1)c1c[nH]c(=O)s1 [Compound 239]
4 | 0.293 µM | 2 µM | – | Cn1c(C(=O)Nc2cc(Cl)c(=O)n(CC(F)(F)F)c2)cc(Cl)c1Cl [Compound 135]
5 | > 50 µM | > 50 µM | – | COCCn1cc(NC(=O)c2nc(C)n(-c3ccccc3Cl)n2)ccc1=O [Compound 11]
6 | 2.31 µM | 27.5 µM | – | N#Cc1cc(NC(=O)c2cc(Cl)c(Cl)[nH]2)cn(CC(F)(F)F)c1=O [Compound 211]
7 | – | – | IC50 [1, 5]: > 50 µM; IC50 [2, 6]: > 50 µM | CCn1cc(NC(=O)c2cccnc2)ccc1=O [Compound 14a]
8 | – | – | IC50 [1, 7]: > 50 µM; IC50 [2, 8]: > 50 µM | Cn1cnc(-c2cc(NC(=O)c3sc(C(F)(F)F)cc3Cl)cn(CC(F)F)c2=O)c1 [Compound 27c]
9 | – | – | IC50 [1, 5]: 1.53 µM; IC50 [2, 6]: 8.48 µM | O=C(Nc1cc(F)c(=O)n(CC(F)F)c1)c1cnc(C(F)(F)F)c(F)c1 [Compound 69a]
10 | 0.252 µM | 0.527 µM | – | N#Cc1sc(C(=O)Nc2ccc(=O)n(CC(F)(F)F)c2)cc1Cl [Compound 127]
11 | 0.331 µM | 2.2 µM | – | Nc1c(C(=O)Nc2cc(F)c(=O)n(CC(F)F)c2)sc(Cl)c1Cl [Compound 332]
12 | – | – | IC50 [1, 9]: > 50 µM; IC50 ([2]; FL-SMARCA4 IC50): > 50 µM | Cc1nc(-c2ccc(C(=O)Nc3cc(F)c(=O)n(CC(F)F)c3)s2)cs1 [Compound 33d]
13 | > 50 µM | > 50 µM | – | Cc1cc(NC(=O)c2cnn(-c3cccc(Cl)c3)c2C)c[nH]c1=O [Compound 4]
14 | 1.26 µM | 5.78 µM | – | Cn1c(C(=O)Nc2cc(C#N)c(=O)n(CCF)c2)cc(Cl)c1C#N [Compound 204]
15 | – | – | IC50 [1, 9]: > 50 µM; IC50 ([2]; FL-SMARCA4 IC50): > 50 µM | COc1ncc(F)cc1C(=O)Nc1cc(F)c(=O)n(CC(F)F)c1 [Compound 41d]
16 | – | – | IC50 [1, 7]: 5.41 µM; IC50 [2, 8]: 6.27 µM | O=C(Nc1cc(C#CC(F)(F)F)c(=O)n(CC(F)F)c1)c1cc(F)c(Cl)s1 [Compound 26c]

Row | IC50 [1, 3] | IC50 [2, 4] | also measured | Structure (SMILES)
17 | – | – | IC50 [1, 9]: > 50 µM; IC50 ([2]; FL-SMARCA4 IC50): > 50 µM | CCn1cc(NC(=O)Nc2ccccn2)ccc1=O [Compound 17d]
18 | 16.7 µM | > 50 µM | – | O=C(Nc1cc(F)c(=O)n(CC(F)(F)F)c1)c1cc(Cl)c(Cl)o1 [Compound 255]
19 | – | – | IC50 [1, 7]: 2.61 µM; IC50 [2, 8]: 22.1 µM | O=C(Nc1cc(F)c(=O)n(CC(F)CO)c1)c1cc(Cl)c(Cl)s1 (centres unmarked) [Compound 50c]
20 | – | – | IC50 [1, 7]: > 50 µM; IC50 [2, 8]: > 50 µM | Cn1ccc(-c2cc(NC(=O)c3sc(C(F)(F)F)cc3Cl)cn(CC(F)F)c2=O)n1 [Compound 19c]
21 | 33.2 µM | > 50 µM | – | CCn1cc(NC(=O)c2cc(Cl)c(-c3ncco3)s2)ccc1=O [Compound 283]
22 | – | – | IC50 [1, 9]: 6.38 µM; IC50 ([2]; FL-SMARCA4 IC50): 28.9 µM | CCCn1nc(NC(=O)c2cc(Cl)c(Cl)s2)ccc1=O [Compound 22d]
23 | 1.5 µM | 11.1 µM | – | O=C(Nc1ccc(=O)n(CCF)c1)c1cc(Cl)c(Cl)[nH]1 [Compound 157]
24 | 29.9 µM | > 50 µM | – | Cn1c(C(=O)Nc2cc(C#N)c(=O)n(CC(F)(F)F)c2)cnc1Cl [Compound 214]
25 | > 50 µM | > 50 µM | – | O=C(Nc1cc(F)c(=O)n(CCF)c1)c1cnc(Br)o1 [Compound 252]
26 | > 50 µM | > 50 µM | – | CCn1cc(NC(=O)c2cc(Cl)c(Cl)s2)cc(Cc2ccccc2)c1=O [Compound 120]
27 | 1.32 µM | 16.6 µM | – | O=C(Nc1cc(F)c(=O)n(CCF)c1)c1cc(Cl)c(CC(F)(F)F)s1 [Compound 319]
28 | – | – | IC50 [1, 5]: > 50 µM; IC50 [2, 6]: > 50 µM | CCn1cc(NC(=O)c2ccc(=O)n(-c3ccccc3F)n2)ccc1=O [Compound 1a]
29 | 3.21 µM | 30.6 µM | – | O=C(Nc1cc(F)c(=O)n(CCF)c1)c1cc(Cl)c(CO)s1 [Compound 284]
30 | – | – | IC50 [1, 5]: > 50 µM; IC50 [2, 6]: > 50 µM | CCn1cc(NC(=O)n2cc3ccccc3n2)ccc1=O [Compound 39a]
31 | – | – | IC50 [1, 9]: 25.1 µM; IC50 ([2]; FL-SMARCA4 IC50): > 50 µM | O=C(Nc1cc(F)c(=O)n(CC(F)F)c1)c1cc(C(O)C(F)(F)F)c(Cl)s1 (centres unmarked) [Compound 47d]
